Experimental findings from US11649255B2, “Indazoles as hematopoietic progenitor kinase 1 (HPK1) inhibitors and methods using same” (1st Biotherapeutics, Inc., priority 2020, dated 2023) are described below.

pIC50: −log10 of the molar value. Structures can show the parent of a compound that is named as a salt.

The assay deals with recombinant human HPK1 (Homo sapiens (Human), UniProt Q92918). The assay can be described thus: HPK1 kinase assay (ADP-Glo). The assay is classed as biochemical. Conditions: 25 μM ATP, MBP substrate. A digest of the protocol:
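Activity was read as ADP formed, detected by ADP-Glo luminescence after the reaction of 5 ng recombinant human HPK1 with MBP and ATP (stocks 0.5 μg/μl and 25 μM) for 40 min at 30 °C. Buffer was Tris pH 7.5 with MgCl2, BSA and DTT, with compound in 0.5% DMSO. IC50 came from inhibition curves.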
For orientation: ADP-Glo first removes unused ATP, then detects ADP through luciferase.

recombinant human HPK1, sequence (Q92918 whole entry): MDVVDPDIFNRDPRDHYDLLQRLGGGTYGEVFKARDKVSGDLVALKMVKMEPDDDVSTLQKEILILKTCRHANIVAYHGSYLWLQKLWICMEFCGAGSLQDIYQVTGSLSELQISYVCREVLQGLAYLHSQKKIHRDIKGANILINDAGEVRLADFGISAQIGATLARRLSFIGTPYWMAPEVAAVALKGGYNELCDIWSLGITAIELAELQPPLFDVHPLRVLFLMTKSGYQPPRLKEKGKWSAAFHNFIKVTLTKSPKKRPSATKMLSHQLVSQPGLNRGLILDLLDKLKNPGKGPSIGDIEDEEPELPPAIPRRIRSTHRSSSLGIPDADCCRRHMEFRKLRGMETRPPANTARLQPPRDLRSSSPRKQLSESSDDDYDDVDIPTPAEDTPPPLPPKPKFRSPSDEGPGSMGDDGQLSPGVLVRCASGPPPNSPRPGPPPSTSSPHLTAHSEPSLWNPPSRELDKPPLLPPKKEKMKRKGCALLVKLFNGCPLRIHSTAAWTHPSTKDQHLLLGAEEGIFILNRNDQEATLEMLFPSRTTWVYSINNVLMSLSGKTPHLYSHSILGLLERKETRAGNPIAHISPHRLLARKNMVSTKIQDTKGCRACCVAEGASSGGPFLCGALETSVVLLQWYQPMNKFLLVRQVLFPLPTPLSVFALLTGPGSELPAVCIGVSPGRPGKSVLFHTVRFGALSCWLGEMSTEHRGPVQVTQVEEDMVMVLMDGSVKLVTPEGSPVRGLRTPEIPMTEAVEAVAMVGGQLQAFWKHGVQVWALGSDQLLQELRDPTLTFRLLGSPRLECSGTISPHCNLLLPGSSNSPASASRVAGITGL

In the case of `Cc1cccn1-c1c(F)c(Cl)c(-c2ccc3nc(NC(=O)[C@@H]4C[C@@H]4F)cn3c2)c2cn[nH]c12` [Example 388, (1S,2S)-N-(6-(5-chloro-6-fluoro-7-(2-methyl-1H-pyrrol-1-yl)-1H-indazol-4-yl)imidazo[1,2-a]pyridin-2-yl)-2-fluorocyclopropane-1-carboxamide], the pIC50 (usually the IC50 on a negative log10 scale, so that one unit is a factor of ten) is over 7.00.
`CC(C)(O)c1c(F)c(Cl)c(-c2ccc3nc(NC(=O)[C@@H]4C[C@@H]4F)cn3c2)c2cn[nH]c12` [Example 389, (1S,2S)-N-(6-(5-chloro-6-fluoro-7-(2-hydroxypropan-2-yl)-1H-indazol-4-yl)imidazo[1,2-a]pyridin-2-yl)-2-fluorocyclopropane-1-carboxamide]: the pIC50 is over 7.00.
On to `COCc1c(F)c(Cl)c(-c2ccc3nc(NC(=O)[C@@H]4C[C@@H]4F)cn3c2)c2cn[nH]c12` [Example 390, (1S,2S)-N-(6-(5-chloro-6-fluoro-7-(methoxymethyl)-1H-indazol-4-yl)imidazo[1,2-a]pyridin-2-yl)-2-fluorocyclopropane-1-carboxamide], for which the pIC50 was over 7.00.
For the molecule `CCOCc1c(F)c(Cl)c(-c2ccc3nc(NC(=O)[C@@H]4C[C@@H]4F)cn3c2)c2cn[nH]c12` [Example 391, (1S,2S)-N-(6-(5-chloro-7-(ethoxymethyl)-6-fluoro-1H-indazol-4-yl)imidazo[1,2-a]pyridin-2-yl)-2-fluorocyclopropane-1-carboxamide], the pIC50 was over 7.00.
As to `O=C(Nc1cn2cc(-c3c(Cl)c(F)c(Cn4cnnn4)c4[nH]ncc34)ccc2n1)[C@@H]1C[C@@H]1F` [Example 392, (1S,2S)-N-(6-(7-((1-tetrazol-1-yl)methyl)-5-chloro-6-fluoro-1H-indazol-4-yl)imidazo[1,2-a]pyridin-2-yl)-2-fluorocyclopropane-1-carboxamide], the pIC50 is over 7.00.
With `COC(C)(C)c1c(F)c(Cl)c(-c2ccc3nc(NC(=O)[C@@H]4C[C@@H]4F)cn3c2)c2cn[nH]c12` [Example 395, (1S,2S)-N-(6-(5-chloro-6-fluoro-7-(2-methoxypropan-2-yl)-1H-indazol-4-yl)imidazo[1,2-a]pyridin-2-yl)-2-fluorocyclopropane-1-carboxamide], the pIC50 was over 7.00.
The value for `CC(c1c(F)c(Cl)c(-c2ccc3nc(NC(=O)[C@@H]4C[C@@H]4F)cn3c2)c2cn[nH]c12)N(C)C` (stereo partly drawn) [Example 396, (1S,2S)-N-(6-(5-chloro-7-(1-(dimethylamino)ethyl)-6-fluoro-1H-indazol-4-yl)imidazo[1,2-a]pyridin-2-yl)-2-fluorocyclopropane-1-carboxamide. Formaic acid salt] was over 7.00.
Turning to `CN(C)C(=O)CNc1c(F)c(Cl)c(-c2ccc3nc(NC(=O)[C@@H]4C[C@@H]4F)cn3c2)c2cn[nH]c12` [Example 397, (1S,2S)-N-(6-(5-chloro-7-((2-(dimethylamino)-2-oxoethyl)amino)-6-fluoro-1H-indazol-4-yl)imidazo[1,2-a]pyridin-2-yl)-2-fluorocyclopropane-1-carboxamide], the pIC50 is over 7.00.
In the case of `CC(c1c(F)c(Cl)c(-c2ccc3nc(NC(=O)[C@@H]4C[C@@H]4F)cn3c2)c2cn[nH]c12)n1cnnn1` (stereo partly drawn) [Example 398, (1S,2S)-N-(6-(7-(1-(1H-tetrazol-1-yl)ethyl)-5-chloro-6-fluoro-1H-indazol-4-yl)imidazo[1,2-a]pyridin-2-yl)-2-fluorocyclopropane-1-carboxamide] it was over 7.00; in that of `CC(N)c1c(F)c(Cl)c(-c2ccc3nc(NC(=O)[C@@H]4C[C@@H]4F)cn3c2)c2cn[nH]c12` (stereo partly drawn) [Example 399, (1S,2S)-N-(6-(7-(1-aminoethyl)-5-chloro-6-fluoro-1H-indazol-4-yl)imidazo[1,2-a]pyridin-2-yl)-2-fluorocyclopropane-1-carboxamide], over 7.00.
In the case of `CN(C)C(=O)c1ccn(-c2c(F)c(Cl)c(-c3ccc4nc(NC(=O)[C@@H]5C[C@@H]5F)cn4c3)c3cn[nH]c23)c1` [Example 400, 1-(5-chloro-6-fluoro-4-(2-((1S,2S)-2-fluorocyclopropane-1-carboxamido)imidazo[1,2-a]pyridin-6-yl)-1H-indazol-7-yl)-N,N-dimethyl-1H-pyrrole-3-carboxamide] it was over 7.00; in that of `O=C(Nc1cn2cc(-c3c(Cl)c(F)c(OC4CC4)c4[nH]ncc34)ccc2n1)[C@@H]1C[C@@H]1F` [Example 401, (1S,2S)-N-(6-(5-chloro-7-cyclopropoxy-6-fluoro-1H-indazol-4-yl)imidazo[1,2-a]pyridin-2-yl)-2-fluorocyclopropane-1-carboxamide], over 7.00.
Take `CNC(C)c1c(F)c(Cl)c(-c2ccc3nc(NC(=O)[C@@H]4C[C@@H]4F)cn3c2)c2cn[nH]c12` (stereo partly drawn) [Example 402, (1S,2S)-N-(6-(5-chloro-6-fluoro-7-(1-(methylamino)ethyl)-1H-indazol-4-yl)imidazo[1,2-a]pyridin-2-yl)-2-fluorocyclopropane-1-carboxamide]: the pIC50 is 6.30 to 7.00.
For the molecule `CC(C)Nc1c(F)c(Cl)c(-c2cc(N)c3nc(NC(=O)[C@@H]4C[C@@H]4F)cn3c2)c2cn[nH]c12` [Example 403, (1S,2S)-N-(8-amino-6-(5-chloro-6-fluoro-7-(isopropylamino)-1H-indazol-4-yl)imidazo[1,2-a]pyridin-2-yl)-2-fluorocyclopropane-1-carboxamide. 1 formic acid], the pIC50 was under 6.00.
As to `CC(C)Oc1c(F)c(Cl)c(-c2ccc3nc(NC(=O)[C@@H]4C[C@@H]4F)cn3c2)c2cn[nH]c12` [Example 404, (1S,2S)-N-(6-(5-chloro-6-fluoro-7-isopropoxy-1H-indazol-4-yl)imidazo[1,2-a]pyridin-2-yl)-2-fluorocyclopropane-1-carboxamide], the pIC50 was over 7.00.
On to `CC(C)c1c(F)c(Cl)c(-c2ccc3nc(NC(=O)[C@@H]4C[C@@H]4F)cn3c2)c2cn[nH]c12` [Example 405, (1S,2S)-N-(6-(5-chloro-6-fluoro-7-isopropyl-1H-indazol-4-yl)imidazo[1,2-a]pyridin-2-yl)-2-fluorocyclopropane-1-carboxamide], for which the pIC50 is over 7.00.
Regarding `O=C(Nc1cn2cc(-c3c(Cl)c(F)c(C4CCCC4)c4[nH]ncc34)ccc2n1)[C@@H]1C[C@@H]1F` [Example 406, (1S,2S)-N-(6-(5-chloro-7-cyclopentyl-6-fluoro-1H-indazol-4-yl)imidazo[1,2-a]pyridin-2-yl)-2-fluorocyclopropane-1-carboxamide], the pIC50 is over 7.00.
With `C[C@H](c1c(F)c(Cl)c(-c2ccc3nc(NC(=O)[C@@H]4C[C@@H]4F)cn3c2)c2cn[nH]c12)n1ncnn1` [Example 407, (1S,2S)-N-(6-(7-((R)-1-(2H-tetrazol-2-yl)ethyl)-5-chloro-6-fluoro-1H-indazol-4-yl)imidazo[1,2-a]pyridin-2-yl)-2-fluorocyclopropane-1-carboxamide], the pIC50 was over 7.00.
The value for `C[C@@H](c1c(F)c(Cl)c(-c2ccc3nc(NC(=O)[C@@H]4C[C@@H]4F)cn3c2)c2cn[nH]c12)n1ncnn1` [Example 408, (1S,2S)-N-(6-(7-((S)-1-(2H-tetrazol-2-yl)ethyl)-5-chloro-6-fluoro-1H-indazol-4-yl)imidazo[1,2-a]pyridin-2-yl)-2-fluorocyclopropane-1-carboxamide] was over 7.00.
